Patent publication US7531545B2, “2-amino-3,4-dihydro-pyrido[3,4-d]pyrimidine derivatives useful as inhibitors of β-secretase (BACE)” (Janssen Pharmaceutica, N.V., priority 2005, dated 2009)
Several values for one entry are separate records, joined by “and”; a condition that tells them apart may be missing. Identical values can stand only once.

Biological target: T1, β-secretase (BACE) (Homo sapiens, UniProt P56817)
T1 construct: purchased Panvera
Test: BACE FS1 Assay (% Inhibition and Ki)
Assay type: biochemical
Settings: FS1 substrate; for inhibition at 0.3 µM / % Inhibition (FS) @ 0.3 μM: 0.3 μM test compound; for inhibition at 0.3 µM: read-out: % Inhibition (FS) @ 0.3 μM; for inhibition at 1 µM / % Inhibition (FS) @ 1 μM: 1 μM test compound; for inhibition at 1 µM: read-out: % Inhibition (FS) @ 1 μM; for inhibition at 3 µM / % Inhibition (FS) @ 3 μM: 3 μM test compound; for inhibition at 3 µM: read-out: % Inhibition (FS) @ 3 μM
Method: BACE FS1 Assay (% Inhibition and Ki)
The following reagents were used in this assay: sodium acetate, PEG8000 (Sigma), DMSO, HEPES, FS1 substrate [R(AedensE)[…]-(DabcylK)R], β-secretase (BACE) (Panvera), and 96-well plate (HE microplate, Molecular Devices).
The following assay buffers were prepared and used in this assay: (1) enzyme assay buffer (0.05 M sodium acetate, pH5, 0.1% PEG8000 (w/v)), (2) substrate assay buffer (0.05 M sodium acetate, pH5), and (3) compound vehicle (30% DMSO in 50 mM HEPES, pH 7.4).
The FS1-substrate stock solution was prepared in DMSO as a 10 mg/mL solution. The FS1-substrate working solution was prepared by diluting the 10 mg/mL stock solution with substrate assay buffer to a final concentration of 300 μg/mL. The β-secretase (BACE) working solution was prepared by diluting a 0.83 mg/mL BACE stock solution with enzyme assay buffer to a final concentration of 4 μg/mL.
Test compounds were dissolved in DMSO to 10 mM. Compounds were further diluted in vehicle to various concentrations in the range of 405 μM to 4.05 μM (13.5× final compound concentration in screening plate).
The screening procedure for this assay was as follows: 15 μL of BACE working solution was pipetted into each well of a 96-well plate. To each well was then pipetted 2 μL of test compound at the selected concentration. Test compound and BACE were then mixed with a pipettor and incubated for 20 min at room temperature. To each well was then added 10 μL of the FS1 substrate working solution. The plates were then incubated for 1 hour at room temperature. The fluorescence for each well was then measured on an LJL analyst (Ex 360 nm/Em 530 nm).
The procedure for the blank was as follows. 15 μL of assay buffer was pipetted into each well to be used as a blank control. To each well was then added 2 μL of vehicle and […] of FS1-substrate working solution. The plates were then incubated for 1 hour at room temperature. The fluorescence was measured on an LJL analyst (Ex 360 nm/Em 530 nm).
The procedure for the positive control was as follows: 15 μL of BACE working solution was pipetted into each well to be used as a positive control. To each well was then pipetted 2 μL of vehicle. Vehicle and BACE were then mixed with a pipettor and incubated for 20 min at room temperature. To each well was then added 10 μL of the FS1 substrate working solution. The plates were then incubated for 1 hour at room temperature. The fluorescence (F1) was then measured on an LJL analyst (Ex 360 nm/Em 530 nm).
For test compounds, % inhibition was determined at each concentration as follows:
% Inhibition values of less than 30% were indistinguishable from control are listed as ≦30% in Table 18, below.
For test compounds, measured at multiple concentrations, the measured T0 and T60 values were used to calculate an IC50 value using Graphpad Software (or PIR). Ki inhibition was determined as follows: For each compound concentration and positive control, rate of cleavage of substrate (Vi, where i=compound concentration in μM) was determined as Δ Fluorescence/Δ time (min). Cleavage rates (Vi) were plotted as a function of inhibitor concentration in μM [I]. […]

T1 sequence (P56817 46-501): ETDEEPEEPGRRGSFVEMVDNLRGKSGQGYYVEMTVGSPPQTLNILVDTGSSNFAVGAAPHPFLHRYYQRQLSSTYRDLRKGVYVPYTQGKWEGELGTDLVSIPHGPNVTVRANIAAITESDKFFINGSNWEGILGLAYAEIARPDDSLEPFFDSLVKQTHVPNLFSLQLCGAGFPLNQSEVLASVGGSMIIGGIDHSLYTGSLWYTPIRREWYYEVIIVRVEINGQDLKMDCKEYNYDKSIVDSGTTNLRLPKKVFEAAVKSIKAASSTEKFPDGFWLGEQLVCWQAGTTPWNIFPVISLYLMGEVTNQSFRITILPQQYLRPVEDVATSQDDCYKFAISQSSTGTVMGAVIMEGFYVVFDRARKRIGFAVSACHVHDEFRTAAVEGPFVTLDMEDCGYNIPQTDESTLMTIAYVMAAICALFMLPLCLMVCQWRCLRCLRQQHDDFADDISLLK

inhibition at 0.3 µM [%]	inhibition at 1 µM [%]	inhibition at 3 µM [%]	Ki	% Inhibition (FS) @ 0.3 μM [%]	% Inhibition (FS) @ 1 μM [%]	% Inhibition (FS) @ 3 μM [%]	Compound
88	103	104	55 nM	–	–	–	CC(C)[C@H](CCC(=O)N(CCCO)C1CCCCC1)N1Cc2cc(Oc3ccccc3)ncc2N=C1N [Compound 19]
97	102	104	13 nM	–	–	–	CC(C)C(CCC(=O)N(CCO)C1CCC(C(=O)O)CC1)N1Cc2cc(Oc3ccccc3)ncc2N=C1N (centres unmarked) [Compound 20]
51	83	97	74 nM	–	–	–	CC(C)[C@H](CCC(=O)N(CCO)C(C)C)N1Cc2cc(Oc3ccccc3)ncc2N=C1N [Compound 21]
0	61	93	173 nM	–	–	–	CN(C(=O)CCC(CCO)N1Cc2cc(Oc3ccccc3)ncc2N=C1N)C1CCCCC1 (centres unmarked) [Compound 22]
32	86	103	151 nM	–	–	–	COCCC(CCC(=O)N(C)C1CCCCC1)N1Cc2cc(Oc3ccccc3)ncc2N=C1N (centres unmarked) [Compound 23]
40	71	103	234 nM	–	–	–	CC(C)OCCC(CCC(=O)N(C)C1CCCCC1)N1Cc2cc(Oc3ccccc3)ncc2N=C1N (centres unmarked) [Compound 24]
110	124	124	22 nM	–	–	–	CN(C(=O)CCC(C1CCOCC1)N1Cc2cc(Oc3ccccc3)ncc2N=C1N)C1CCC(C(=O)O)CC1 (centres unmarked) [Compound 26]
16	96	110	193 nM	–	–	–	CCOC(=O)C1CCC(N(C)C(=O)CCC(C2CCOCC2)N2Cc3cc(Oc4ccccc4)ncc3N=C2N)CC1 (centres unmarked) [Compound 27]
116	124	128	17 nM	–	–	–	COC(=O)[C@@H](CO)NC(=O)CC[C@@H](C(C)C)N1Cc2cc(Oc3ccccc3)ncc2N=C1N [Compound 28]
–	115	119	31 nM	93	–	–	CC(C)[C@H](CO)NC(=O)CC[C@@H](C(C)C)N1Cc2cc(Oc3ccccc3)ncc2N=C1N [Compound 29]
91	106	117	97 nM	–	–	–	CC(C)[C@H](CCC(=O)N[C@H](CO)C(=O)O)N1Cc2cc(Oc3ccccc3)ncc2N=C1N [Compound 30]
129	125	125	8 nM	–	–	–	CC(C)[C@H](CCC(=O)N(CCO)C1CCCCC1)N1Cc2cc(Oc3ccccc3)ncc2N=C1N [Compound 31]
79	101	109	20 nM	–	–	–	COC(=O)[C@H]1CC[C@@H](N(C)C(=O)CC[C@@H](C2CCOCC2)N2Cc3cc(Oc4ccccc4)ncc3N=C2N)CC1 [Compound 32]
114	112	113	5 nM	–	–	–	CN(C(=O)CC[C@@H](C1CCOCC1)N1Cc2cc(Oc3ccccc3)ncc2N=C1N)[C@H]1CC[C@@H](C(=O)O)CC1 [Compound 33]
96	106	115	32 nM	–	–	–	COC(=O)[C@H]1CC[C@H](N(C)C(=O)CC[C@@H](C2CCOCC2)N2Cc3cc(Oc4ccccc4)ncc3N=C2N)CC1 [Compound 34]
–	–	–	21 nM	114	112	114	CC(C)[C@H](CO)NC(=O)CC[C@@H](C(C)C)N1Cc2cc(Oc3ccccc3)ncc2N=C1N [Compound 36]

Continued, molecule first:

Compound	inhibition at 0.3 µM [%]	inhibition at 1 µM [%]	inhibition at 3 µM [%]	Ki	% Inhibition (FS) @ 0.3 μM [%]	% Inhibition (FS) @ 1 μM [%]	% Inhibition (FS) @ 3 μM [%]
NC1=Nc2cnc(Oc3ccccc3)cc2CN1CCNC(=O)C1CCCCC1 [Compound 1]	75	102	110	166 nM	–	–	–
CC(C)(C)OC(=O)NCCN1Cc2cc(Oc3ccccc3)ncc2N=C1N [Compound 2]	70	102	124	91 nM	–	–	–
COc1ccccc1-c1cc2c(cn1)N=C(N)N([C@@H](CCC(=O)N(C)C1CCCCC1)C1CCCCC1)C2 [Compound 3]	130	132	139	18 nM	–	–	–
CN(C(=O)CC[C@@H](C1CCCCC1)N1Cc2cc(-c3ccccc3F)ncc2N=C1N)C1CCCCC1 [Compound 4]	113	127	132	35 nM	–	–	–
CN(C(=O)CC[C@@H](C1CCCCC1)N1Cc2cc(Oc3ccccc3)ncc2N=C1N)C1CCCCC1 [Compound 5]	125	131	138	25 nM	–	–	–
NC1=Nc2cnc(Oc3ccccc3)cc2CN1CCCC(=O)NC1C2CC3CC(C2)CC1C3 (centres unmarked) [Compound 6]	122	139	138	21 nM	–	–	–
CC(C)C(CCC(=O)N(C)C1CCC(C(=O)O)CC1)N1Cc2cc(Oc3ccccc3)ncc2N=C1N (centres unmarked) [Compound 8]	106	129	138	27 nM and 16 nM	121	115	130
CC(C)C(CCC(=O)N(CCO)C1CCC(C#N)CC1)N1Cc2cc(Oc3ccccc3)ncc2N=C1N (centres unmarked) [Compound 10]	55	80	114	207 nM	–	–	–
CC(C)C(CCC(=O)N(C)C1CCC(C#N)CC1)N1Cc2cc(Oc3ccccc3)ncc2N=C1N (centres unmarked) [Compound 11]	47	78	120	124 nM	–	–	–
CC(C)C(CCC(=O)N(CCO)C1CCC(c2nnn[nH]2)CC1)N1Cc2cc(Oc3ccccc3)ncc2N=C1N (centres unmarked) [Compound 12]	30	63	95	503 nM	–	–	–
CC(C)[C@H](CCC(=O)N(C)C1CCC(c2nnn[nH]2)CC1)N1Cc2cc(Oc3ccccc3)ncc2N=C1N (stereo partly drawn) [Compound 13, 4-(S)-(2-Amino-6-phenoxy-4H-pyrido[3,4-d]pyrimidin-3-yl)-5-methyl-hexanoic acid methyl-[4-(1H-tetrazol-5-yl)-cyclohexyl]-amide]	30	63	87	517 nM	–	–	–
CCOC(=O)C1CCC(N(CCO)C(=O)CCC(C(C)C)N2Cc3cc(Oc4ccccc4)ncc3N=C2N)CC1 (centres unmarked) [Compound 14]	11	66	108	241 nM	–	–	–
CCOC(=O)CCN(C)C(=O)CC[C@@H](C(C)C)N1Cc2cc(Oc3ccccc3)ncc2N=C1N [Compound 15]	68	94	110	129 nM	–	–	–
CC(C)[C@H](CCC(=O)N(C)CCC(=O)O)N1Cc2cc(Oc3ccccc3)ncc2N=C1N [Compound 16]	12	51	80	1090 nM	–	–	–
CCOC(=O)C1CCC(N(C)C(=O)CCC(C2CCCCC2)N2Cc3cc(Oc4ccccc4)ncc3N=C2N)CC1 (centres unmarked) [Compound 17]	4	61	86	222 nM	–	–	–
CN(C(=O)CCC(C1CCCCC1)N1Cc2cc(Oc3ccccc3)ncc2N=C1N)C1CCC(C(=O)O)CC1 (centres unmarked) [Compound 18]	119	121	128	17 nM	–	–	–
